What was measured:
NAMECs [1] = experiment: Western blot of exosome markers and proteins in CM-P4 fractions of NAMECs; assay type: cell-based, human; settings: AH23848 0.4, 2, 4 μg/ml; AH6809 0.8, 4, 8 μg/ml; GW 1 μg/ml
From the text: FIG. 2 includes graphs and blots showing analyses of GW-treated NAMEC P4 fractions. CM-P4 GW-treated NAMECs were collected and subjected to (A) NanoSight Nanoparticle Tracking Analysis (NTA) and (B) Dynamic Light Scattering/Zeta Potential Analysis (DLS). […] D: particle diameter. RN: relative number. (C) is a blot showing the amounts of the CD44 stem cell marker and the CD81, CD9, TSG101, Alix, HSP70 and GAPDH exosome markers measured in the indicated CM-P4 fractions and cell lysates. The culture media and cell lysates were collected from the same number of NAMECs treated with vehicle (Crl), GW627368X (GW) or PGE2 (1 μM) for 4 days. (D) is a blot showing the amounts of the GAPDH and CD81 exosome markers and the CD44 stem cell marker measured in the CM-P4 fraction of NAMECs (CD44hi/CD24− stem cells) or CD44lo/CD24+ non-stem cells (HMLE cells) treated with vehicle (Crl) or GW for 2 days. 1×: P4 exosome fraction released by 1×10^6 cells; 2×: P4 exosome fraction released by 2×10^6 cells. […] (E) is a blot showing that the CD44 stem cell marker and GAPDH and CD81 exosome markers were measured in the indicated P4 conditioned medium fractions of NAMECs treated with vehicle (Crl), GW627368X (GW, 1 μg/ml), AH23848 (EP4 antagonist; 0.4, 2, 4 μg/ml), or AH6809 (EP1/2/3 antagonist; 0.8, 4, 8 μg/ml). (F) is a blot showing the HSP70, GAPDH and CD81 exosome markers measured in the indicated CM-P4 of NAMECs, NAMEC-shEP4-1 cells, and NAMEC-shEP4-2 cells treated with vehicle or with doxycycline (Dox, 2 μg/ml) (top panel). Doxyclycline (Dox) induced the production EP4 shRNA in NAMEC-shEP4 cells (bottom panel).
The P4 exosome fractions and cell lysates were collected from NAMECs treated with vehicle (Crl), GW627368X (GW), or PGE2 for 4 days. 1×: P4 exosome fraction released by 2.5×10^5 cells; 5×: P4 exosome fraction released by 12.5×10^5 cells. Hg: Hg-integrin β1, Lg: Lg-integrin β1, H: H-integrin α6, L: L-integrin α6, pg: pg-LRP6, g: g-LRP6, Ng: Ng-LRP6.
(§1) The isolated human mammary epithelial stem cells (NAMECs) were cultured in mammary epithelial cell basal medium (250 ml MCDB-170, 250 ml DMEM-F12, 1.2 g sodium bicarbonate, 2.5 μg EGF, 0.25 mg Hydrocortisone, 2.5 mg insulin, 35 mg BPE) with or without containing EP4 antagonist, i.e., GW627368X (GW) at 1 μg/ml, or AH23848 (AH) at 4 μg/ml, for 4 days. The culture medium was supplied with 0.5 μg/ml of GW or 2 μg/ml of AH23848 at the third day of the culturing period. For the induction of EP4 antagonist-induced exosomes from mouse mammary epithelial cells, cells were cultured in a medium containing 10 μg/ml of GW for 4 days.
The culture media were centrifuged at 300 g for 5 min to remove cells (P1), at 2,000 g for 20 min (P2), then at 10,000 g for 30 min (P3) all at 4° C. Dead cells and cell debris were removed at 300 g (P1) and 1200 g (P2). […]

NAMECs [2] = experiment: NanoSight Nanoparticle Tracking Analysis of CM-P4 fractions of NAMEC culture; assay type: cell-based, human; settings: CM-P4 fraction, 4 days; PGE2 1 μM
From the text: FIG. 1 includes a TEM image and a graph. (A) is a TEM image of the P4 medium fraction of NAMECs treated with GW627368X (GW) for 4 days. Scale bar, 1 μm. (B) is a graph showing the number of particles in the CM-P4 fractions of NAMEC culture counted by using NanoSight Nanoparticle Tracking analysis. Top panel: Quantification of exosome release is shown as the ratio of [P4 GAPDH marker level]/[cell number]. Data are means±SEM (n=3). *P≤0.05. **P≤0.005. Bottom table: Quantification of exosome release is shown as the number of particles of the CM-P4 fractions released per cell measured by nanoparticle tracking analysis.
as §1
The culture media were centrifuged at 300 g for 5 min to remove cells (P1), at 2,000 g for 20 min (P2), then at 10,000 g for 30 min (P3) all at 4° C. Dead cells and cell debris were removed at 300 g (P1) and 1200 g (P2). Finally, exosomes (P4) were separated from the supernatant by centrifugation at 110,000 g for 60 min. The P4 exosome pellet was washed once in PBS and then re-suspended in PBS for further application.

NAMEC-R cells = experiment: NTA of EV release from Ras-transformed NAMEC-R cells; assay type: cell-based; settings: CM-P4, 4 days; GW 1 μg/ml; SQ 120 and 240 nM
Experimental: Vesicles in the P4 fractions were counted using NTA. Data are means±SEM (n=6). ***P≤0.001; (B) The Alix, TSG101, CD63, CD81 and GAPDH exosome markers were measured in the CM-P4 fractions of NAMEC-R cells treated with vehicle (Crl), GW627368X (GW, 1 μg/ml), SQ 29,548 (SQ120/SQ240; 120 nM and 240 nM); (C) The mesenchymal marker N-cadherin, CSC markers and exosome markers were analyzed in the conditioned medium P4 fraction derived from equal numbers of vehicle-treated NAMEC-R cells (Crl), GW-treated NAMEC-R cells (GW, 1 μg/ml GW627368X for 4 days) and SQ 29,548-treated NAMEC-R cells (SQ120/SQ240; 120 nM and 240 nM for 4 days). The longer GAPDH(L) and CD81(L) exposures show the low, but detectable, presence of GAPDH and CD81 in the conditioned medium P4 fraction of vehicle-treated NAMEC-R cells.
We further investigated whether EP4 antagonism and TP receptor antagonism (as GW has partial affinity to the human TP receptor) affected EV release from transformed mammary epithelial stem cells. Four-day conditioned media of vehicle, GW-, or SQ (a TP antagonist)-treated Ras-transformed NAMEC mammary stem cells (NAMEC-R) were collected and subjected to differential ultracentrifugation to isolate EVs released by the cells. The numbers of vesicles in CM-P4 fractions were determined using NTA (FIG. 20, A). EP4 antagonism elicited release of ˜5000 vesicles per NAMEC-R cell. […]

CC(C)Oc1ccc2c(=O)c3cc(C(=O)O)ccc3oc2c1 [AH6809]
exosome release by exosome markers in CM-P4 fractions (NAMECs [1]): not significantly induced

O=C(O)CC/C=C\CC[C@H]1[C@H](N2CCOCC2)C(=O)C[C@H]1OCc1ccc(-c2ccccc2)cc1 [AH23848]
exosome release by exosome markers in CM-P4 fractions (NAMECs [1]): induced in a dose-dependent manner

CCCCC[C@H](O)/C=C/[C@H]1[C@H](O)CC(=O)[C@@H]1C/C=C\CCCC(=O)O [PGE2, prostaglandin E2]
concentration of released membrane vesicles (NAMECs [2]): ~0.5×10^4 particle/cell

O=C(O)CCC/C=C\C[C@@H]1[C@H](CNNC(=O)Nc2ccccc2)[C@H]2CC[C@@H]1O2 [SQ 29,548]
vesicles released per cell (NAMEC-R cells): ~1000 vesicles per cell

From patent US11149277B2, “Method of producing enriched exosomes” (National Health Research Institutes, priority 2016, dated 2021)
